Earlier results in patent US12208127B2, “Preparation and use of cannabis nano-formulation” (Apurano Pharmaceuticals GmbH, priority 2020, dated 2025).
Like-named read-outs stand apart in the source and are kept apart here.

How the values were obtained:
[1] = some pharmacological animal experiments
[2] = i.v. single dose 1 mg
[3] = higher formation after administration

CCCCCc1cc(O)c2c(c1)OC(C)(C)[C@@H]1CCC(CO)=C[C@@H]21 [Example 11-OH-THC, 11-OH-THC]
psychotropic side effects relative to THC [1]: three to seven | time to tachycardia and psychological high [2]: 3-5 minutes

CCCCCc1cc(O)c2c(c1)OC(C)(C)[C@@H]1CCC(C)=C[C@@H]21 [THC, tetrahydrocannabinol]
average plasma clearance rate (naïve THC users): approximately 36 L/h | average plasma clearance rate (regular users): ~60 L/h

CCCCCc1cc(O)c2c(c1)OC(C)(C)[C@@H]1CCC(C)=C[C@@H]21 [dronabinol as capsule, dronabinol]
formation of 11-OH-THC compared to THC [3]: 3 fold
